Values after ≈ are worked out from the molar mass of the structure shown. Where a name gives a salt, the structure may show the parent alone.

One data set has as its system human lung (A549). As to the kind of experiment: In vitro microdilution inhibition, human lung A549. It is filed as cell-based. Conditions: A549, 72 hours, 50% of cells killed. The source says: (§1) As shown in Table III the compounds of the present invention exert an in vitro antitumor effect. The following cells lines were employed: human lung (A549); resistant human lung with low topo II activity (A549-VP); murine melanoma (B16); human colon tumor (HCT116); human colon tumor with elevated p170 levels (HCTVM); human colon tumor with low topo II activity (HCTVP); and another human colon carcinoma cell line (Moser). In the Table, the designation "NT" indicates the compound was not tested against the specified cell line. The cell lines were maintained in continuous culture at 37°, 5% CO2 and high humidity. Cells were harvested in log phase growth and suspended at concentration of 25,000 cells/mL. A […] aliquot was then added to each well (i.e., 3,750 cells per well) of a 96-well flat bottom plate and the cells were allowed to attach over a 24 hour period. After this 24 hour incubation, a 50 μL sample of the specified compound was added to the first (top) well of each column, and the remaining wells of each column serially diluted, 1:4, and allowed to incubate for 72 hours at 37° C., 5% CO2 and high humidity. Following incubation, 50 μL of freshly prepared stain solution was added to each well. After a 3 hour incubation at room temperature, absorbance was read at 450 nm on a microplate reader to determine the compound concentration at which 50% of the cells were killed, such concentration referred to as the "IC50 ".
A general note: Dilution methods test growth across graded concentrations, often in twofold steps.

In data set [1] the test system is resistant human lung with low topo II activity (A549-VP). As to the kind of experiment: In vitro microdilution inhibition, resistant human lung A549-VP. It counts as cell-based. The following applies: A549VP, 72 hours, 50% of cells killed.
Source text: as §1

The test system of the next data set is murine melanoma (B16). As to the kind of experiment: In vitro microdilution inhibition, B16. The following applies: Mus musculus; B16, 72 hours, 50% of cells killed. It counts as cell-based.
Source text: as §1

Data set [2] relates to human colon tumor with elevated p170 levels (HCTVM). Nature of the data set: In vitro microdilution inhibition, HCTVM. It counts as cell-based. The following applies: 72 hours, 50% of cells killed.
Source text: as §1

The test system of data set [3] is human colon tumor with low topo II activity (HCTVP). Nature of the data set: In vitro microdilution inhibition, HCTVP. It counts as cell-based. Conditions: 72 hours, 50% of cells killed.
Source text: as §1

For data set [4], the system named is human colon tumor (HCT116). As to the kind of experiment: In vitro microdilution inhibition, HCT116. It is filed as cell-based. The following applies: HCT-116, 72 hours, 50% of cells killed.
Source text: as §1

A further data set relates to p388 murine leukemia. As to the kind of experiment: In vivo activity against p388 murine leukemia in an acute mouse model. Conditions: CDF1 (female only); for AWC (average weight change per mouse): before treatment to day five. How it is done:
CDF1 mice of both sexes weighing between 16 and 25 gm. were used, with a 2 gm. weight range and same sex and source used per experiment. BDF1 mice also were used with the same weight, sex and source parameters. Control and test animals were injected interperitoneally with suspension of 1×10^6 p388 murine leukemia cells (0.5 mL dose) on day 0. Groups of 4-6 mice were used for each dosage amount they were treated with 5 doses on day one. A group of ten saline treated control mice was included in each set of experiments. A 30 day protocol was employed with mean survival time in days being determined for each group of mice with the number of survivors at the end of the 30 day period being noted. The mice were weighed before treatment and again on day five. The values listed for average weight change (AWC) is the average weight change per mouse at the specified dose. The change in weight was taken as a measure of drug toxicity. A loss in weight of up to 2 grams is not considered excessive. The results were determined in terms of % T/C which is the ratio of the mean survival time of the treated group to the mean survival time of the saline treated group times 100.

As a reminder, the IC50 is the concentration that inhibits the measured activity by half. Read a high IC50 as weaker potency in that assay. Regarding `COC1=CC(=O)c2c(O)c3c(c(O)c2C1=O)C(=O)C1(CCc2cccc(O)c21)C3=O` (centres unmarked) [Example 6, 2',3'-Dihydro-7'-hydroxy-6-methoxy-1H-indene-1'-spiro-2-[4,9-dihydroxy-2H-benz[f]indene-1,3,5,8-tetrone]], the IC50 in the data set on human lung (A549) was 4.9 µg/mL (≈ 12.1 µM); in data set [1], 6.4 µg/mL (≈ 15.8 µM); with murine melanoma (B16) it was 5.2 µg/mL (≈ 12.8 µM); in data set [2], 1.7 µg/mL (≈ 4.18 µM); in data set [3], 3.5 µg/mL (≈ 8.61 µM); in data set [4], 1.6 µg/mL (≈ 3.94 µM).

Turning to `COCOc1cccc2c1C1(CC2)C(=O)c2c(O)c3c(c(O)c2C1=O)C(=O)C(Sc1ccccc1)=C(Sc1ccccc1)C3=O` [Example 31, 2',3'-Dihydro-7'-(methoxymethoxy)-1H-indene-1'-spiro-2-[6,7-di(phenylmercapto)-4,9-dihydroxy-2H-benz[f]indene-I,3,5,8-tetrone]], the IC50 (in the data set with human lung (A549); in data set [1]; in the data set on murine melanoma (B16); in data set [2]; in data set [3]; in data set [4]) was above 16 µg/mL each time.

With `COCOc1cccc2c1C1(CC2)C(=O)c2c(O)c3c(c(O)c2C1=O)C(=O)C(Sc1ccccc1)=CC3=O` (centres unmarked) [Example 34, 2',3'-Dihydro-7'-(methoxymethoxy)-1H-indene-1'-spiro-2-[4,9-dihydroxy-6-(phenylmercapto)-2H-benz[f]indene-1,3,5,8-tetrone]], the IC50 in the data set with murine melanoma (B16) stood at 110 µg/mL (≈ 208 µM); in data set [4], 78 µg/mL (≈ 148 µM).

On to `COCOc1cccc2c1C1(CC2)C(=O)c2c(O)c3c(c(O)c2C1=O)C(=O)C(NC1C(=O)N2C1SC(C)(C)C2C(=O)O)=CC3=O` (centres unmarked) [Example 27, 6-((2',3'-dihydro-7'-(methoxymethoxy)-1H-indene-1'-spiro-[4,9-dihydroxy-2H-benz[f]indene-1,3,5,8-tetrone]-6-yl)amino)penicillanic acid], for which the IC50 was found to be 0.24 µg/mL (≈ 0.378 µM) with murine melanoma (B16) and 0.22 µg/mL (≈ 0.347 µM) in data set [3].

On to `COCOc1cccc2c1C1(CC2)C(=O)c2c(O)c3c(c(O)c2C1=O)C(=O)C(NCC(F)(F)F)=CC3=O` (centres unmarked) [Example 13, 2',3'-Dihydro-6-(2,2,2-trifluoroethylamino)-7'-(methoxymethoxy)-1H-indene-1'-spiro-2-[4,9-dihydroxy-2H-benz[f]-indene-1,3,5,8-tetrone]], for which the IC50 is below 0.03 µg/mL in the data set on human lung (A549); 0.05 µg/mL (≈ 0.0966 µM) in data set [1]; 0.03 µg/mL (≈ 0.058 µM) in the data set with murine melanoma (B16); 0.03 µg/mL (≈ 0.058 µM) in data set [2]; 0.04 µg/mL (≈ 0.0773 µM) in data set [3]; 0.03 µg/mL (≈ 0.058 µM) in data set [4].

Consider `COCOc1cccc2c1C1(CC2)C(=O)c2c(O)c3c(c(O)c2C1=O)C(=O)C(OC)=CC3=O` (centres unmarked) [Example 5, 2',3'-Dihydro-7'-(methoxymethoxy)-6-methoxy-1H-indene-1'-spiro-2-[4,9-dihydroxy-2H-benz[f]indene-1,3,5,8-tetrone]], for which the IC50 in the data set with human lung (A549) was 0.4 µg/mL (≈ 0.888 µM); in data set [1], 1.1 µg/mL (≈ 2.44 µM); with murine melanoma (B16), 0.7 µg/mL (≈ 1.55 µM); in data set [2] it was 0.2 µg/mL (≈ 0.444 µM); in data set [3] it was 0.2 µg/mL (≈ 0.444 µM); in data set [4], 0.09 µg/mL (≈ 0.2 µM).

`COCOc1cccc2c1C1(CC2)C(=O)c2c(O)c3c(c(O)c2C1=O)C(=O)C(SCCO)=CC3=O` (centres unmarked) [Example 33, 2',3'-Dihydro-7'-(methoxymethoxy)-1H-indene-1'-spiro-2-[4,9-dihydroxy-6-(2-hydroxyethylmercapto)-2H-benz[f]indene-1,3,5,8-tetrone]]: the IC50 with murine melanoma (B16) is 107 µg/mL (≈ 216 µM); in data set [4], 5.08 µg/mL (≈ 10.2 µM).

`NCCSSCCNC1=CC(=O)c2c(O)c3c(c(O)c2C1=O)C(=O)C1(CCc2cccc(O)c21)C3=O` (centres unmarked) [Example 35, 2',3'-Dihydro-7'-hydroxy-1H-indene-1'-spiro-2-[4,9-dihydroxy-6-(2(2-aminoethyldithio)ethylamino)-2H-benz[f]indene-1,3,5,8-tetrone] hydrochloride]: the IC50 with murine melanoma (B16) is 24 µg/mL; in data set [3], 22 µg/mL.

In the case of `COCOc1cccc2c1C1(CC2)C(=O)c2c(O)c3c(c(O)c2C1=O)C(=O)C(N[C@@H](CC(N)=O)C(=O)O)=CC3=O` (some centres unmarked) [Example 26, 2',3'-Dihydro-7'-(methoxymethoxy)-1H-indene-1'-spiro-2-4,9-dihydroxy-6-(1-carboxy-2-carbamoylethylamino)-2H-benz[f]indene-1,3,5,8-tetrone], the IC50 was found to be 9.3 µg/mL (≈ 16.9 µM) with murine melanoma (B16) and 1.23 µg/mL (≈ 2.23 µM) in data set [4].

As to `COCOc1cccc2c1C1(CC2)C(=O)c2c(O)c3c(c(O)c2C1=O)C(=O)C(NCC(O)c1ccccc1)=CC3=O` (centres unmarked) [Example 17, 2',3'-Dihydro-7'-(methoxymethoxy)-1H-indene-1'-spiro-2-[6-(2-hydroxy-2-phenyl-ethylamino)-4,9-dihydroxy-2H-benz[f]indene-1,3,5,8-tetrone]], the IC50 in the data set on murine melanoma (B16) is 15 µg/mL (≈ 27 µM); in data set [4] it was 1.47 µg/mL (≈ 2.65 µM).

In the case of `CCCCCc1cc2cc3c(c(OCOC)c2c(OC)n1)C1(CC3)C(=O)c2c(O)c3c(c(O)c2C1=O)C(=O)C(NCC)=CC3=O` (centres unmarked) [Example 22, 6',7'-Dihydro-4,9-dihydroxy-6-ethylamino-1'-methoxy-9'-(methoxymethoxy)-3'-(n-pentyl)-spiro[2H-benz[f]-indene-2,8'[8H]cyclopent[g]isoquinoline]-1,3,5,8-tetrone], the “AWC (average weight change per mouse)” value is recorded as 1.5 with p388 murine leukemia (3.3 mg/kg), 1.0 in the data set with p388 murine leukemia (10 mg/kg) and -0.2 in the data set on p388 murine leukemia (30 mg/kg). Moreover, the response vs control in vivo at 3.3 mg/kg with p388 murine leukemia (Mus musculus, P388, 720 h, 3.3 mg/kg, read-out: % T/C (mean survival time treated/control)) was 95%. Further, the response vs control in vivo at 10 mg/kg in the data set with p388 murine leukemia (Mus musculus, P388, 720 h, 10 mg/kg, read-out: % T/C (mean survival time treated/control)) was 105%. Further, in the data set with p388 murine leukemia (Mus musculus, P388, 720 h, 30 mg/kg, read-out: % T/C (mean survival time treated/control)), the response vs control in vivo at 30 mg/kg is 135%.

Turning to `COCOc1cccc2c1C1(CC2)C(=O)c2c(O)c3c(c(O)c2C1=O)C(=O)C(Nc1ccc(C(=O)O)cc1)=CC3=O` (centres unmarked) [Example 19, 2',3'-Dihydro-7'-(methoxymethoxy)-1H-indene-1'-spiro-2-[6-(4-carboxyanilino)-4,9-dihydroxy-2H-benz[f]indene-1,3,5,8-tetrone]], the IC50 worked out at 27 µg/mL (≈ 48.6 µM) in the data set with murine melanoma (B16) and 322 µg/mL (≈ 580 µM) in data set [4].

As for `COCOc1cccc2c1C1(CC2)C(=O)c2c(O)c3c(c(O)c2C1=O)C(=O)C(Nc1ccc(SSc2ccc(N)cc2)cc1)=CC3=O` (centres unmarked) [Example 36, 2',3'-Dihydro-7'-(methoxymethoxy)-1H-indene-1'-spiro-2-[4,9-dihydroxy-6-(4-(4-aminophenyldithio)phenylamino)-2H-benz[f]indene-1,3,5,8-tetrone]], the IC50 in the data set with murine melanoma (B16) is 458 µg/mL (≈ 687 µM); in data set [4], above 500 µg/mL.

For `CCSC1=C(SCC)C(=O)c2c(O)c3c(c(O)c2C1=O)C(=O)C1(CCc2cccc(OCOC)c21)C3=O` [Example 30], the IC50 in the data set on human lung (A549) is 7 µg/mL (≈ 12.9 µM); in data set [1] it was above 16 µg/mL; in the data set on murine melanoma (B16), 1.8 µg/mL (≈ 3.33 µM); in data set [2], 3 µg/mL (≈ 5.55 µM); in data set [3], 2.2 µg/mL (≈ 4.07 µM); in data set [4], 1.2 µg/mL (≈ 2.22 µM).

For `COCOc1cccc2c1C1(CC2)C(=O)c2c(O)c3c(c(O)c2C1=O)C(=O)C(N)=CC3=O` (centres unmarked) [Example 14, 6-amino-2',3'-dihydro-7'-(methoxymethoxy)-1H-indene-1'-spiro-2-[4,9-dihydroxy-2H-benz[f]-indene-1,3,5,8-tetrone]], the IC50 in the data set on human lung (A549) was below 0.03 µg/mL; in data set [1], 0.03 µg/mL (≈ 0.0689 µM); in the data set with murine melanoma (B16), 0.03 µg/mL (≈ 0.0689 µM); in data set [2], 0.03 µg/mL (≈ 0.0689 µM); in data set [3], 0.03 µg/mL (≈ 0.0689 µM); in data set [4], 0.03 µg/mL (≈ 0.0689 µM).

Consider `COCOc1cccc2c1C1(CC2)C(=O)c2c(O)c3c(c(O)c2C1=O)C(=O)C(Nc1ccc(O)cc1)=CC3=O` (centres unmarked) [Example 21, 2',3'-Dihydro-7'-(methoxymethoxy)-1H-indene-1'-spiro-2-[6-(4-hydroxyanilino)-4,9-dihydroxy-2H-benz[f]indene-1,3,5,8-tetrone]], for which the values for the IC50 (with murine melanoma (B16); in data set [4]) were 18.7 µg/mL (≈ 35.5 µM) and 6.79 µg/mL (≈ 12.9 µM), respectively.

For the molecule `N=C(N)NCCC[C@H](NC1=CC(=O)c2c(O)c3c(c(O)c2C1=O)C(=O)C1(CCc2cccc(O)c21)C3=O)C(=O)O` (some centres unmarked) [Example 28], the IC50 in the data set on murine melanoma (B16) was above 500 µg/mL; in data set [4], 71 µg/mL (≈ 129 µM).
